What is called Kd is the constant that tells how readily two partners part at equilibrium. A higher Kd goes with weaker binding.

One test deals with β-adrenergic receptors. The test can be described thus: 3H-Dihydroalprenolol binding in hippocampal membranes. Details: species or system mouse.
The next test has as its target T1, NA transporter (Mus musculus, UniProt O55192).
T1 construct: the tissue from four animals was pooled, homogenized in incubation buffer; from tissue; host or cells: mouse hippocampus membranes (P2rx7+/+ and P2rx7-/- littermates, C57BL/6 background)
Description: 3H-Nisoxetine binding in hippocampal membranes. On the procedure: Male mice (80–85 days old) were decapitated, and the hippocampus was dissected, weighted, and frozen overnight at −70°C. The next day, the tissue from four animals was pooled, homogenized in incubation buffer using an Ultra-Turrax and centrifuged at 40 000×g for 15 minutes. The pellet was washed by repeated resuspension in buffer, followed by centrifugation. […] Eight ligand concentrations (0.1–4 nM) were used in three parallels. The incubation time was 1 hour at 25°C for citalopram, 2.5 hrs at 4°C for nisoxetine and 30 minutes at 25°C for dihydroalprenolol. The non-specific binding was determined in the presence of 1 µM paroxetine (citalopram), 10 µM desmethylimipramine (nisoxetine) and 1 µM (-) alprenolol (DHA). The membranes of P2rx7+/+ and P2rx7−/− mice were assayed in parallel. The binding was terminated using vacuum filtration on GF/B filters soaked in 0.05% polyethylenimine. The Kd and the number of binding sites (Bmax) were calculated using Prism3 software. The protein concentration (approx. 0.5 mg/ml) was measured according to Lowry method using CuEDTA.

[1] abbreviates: hippocampal membranes of P2rx7+/+ mice.
Where [2] appears, read: hippocampal membranes of P2rx7−/− mice.

T1 sequence (O55192 whole entry): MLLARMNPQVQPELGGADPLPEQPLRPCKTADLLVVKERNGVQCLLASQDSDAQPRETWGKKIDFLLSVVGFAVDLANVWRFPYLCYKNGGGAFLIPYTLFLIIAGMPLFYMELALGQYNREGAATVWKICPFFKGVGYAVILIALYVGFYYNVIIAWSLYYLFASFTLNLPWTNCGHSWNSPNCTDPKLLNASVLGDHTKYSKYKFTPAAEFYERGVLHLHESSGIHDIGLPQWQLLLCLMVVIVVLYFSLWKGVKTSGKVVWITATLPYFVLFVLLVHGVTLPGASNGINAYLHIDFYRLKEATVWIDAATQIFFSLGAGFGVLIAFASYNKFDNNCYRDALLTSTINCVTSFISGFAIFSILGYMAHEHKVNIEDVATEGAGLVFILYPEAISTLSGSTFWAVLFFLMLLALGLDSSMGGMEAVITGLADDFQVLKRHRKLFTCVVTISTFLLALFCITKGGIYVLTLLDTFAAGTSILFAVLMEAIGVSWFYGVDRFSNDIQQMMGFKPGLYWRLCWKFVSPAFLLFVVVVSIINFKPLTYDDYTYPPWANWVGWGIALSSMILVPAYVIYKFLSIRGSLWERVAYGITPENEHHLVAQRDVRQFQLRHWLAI
Description for β-adrenergic receptors: Male mice (80–85 days old) were decapitated, and the hippocampus was dissected, weighted, and frozen overnight at −70°C. The next day, the tissue from four animals was pooled, homogenized in incubation buffer using an Ultra-Turrax and centrifuged at 40 000×g for 15 minutes. The pellet was washed by repeated resuspension in buffer, followed by centrifugation. […] Eight ligand concentrations (0.1–4 nM) were used in three parallels. […] The membranes of P2rx7+/+ and P2rx7−/− mice were assayed in parallel. The binding was terminated using vacuum filtration on GF/B filters soaked in 0.05% polyethylenimine. The Kd and the number of binding sites (Bmax) were calculated using Prism3 software. The protein concentration (approx. 0.5 mg/ml) was measured according to Lowry method [50] using CuEDTA.

As for `CCCc1ccccc1OCC(O)CNC(C)C` (centres unmarked) [^3H-dihydroalprenolol], the figures for the equilibrium dissociation constant (Kd) at β-adrenergic receptors (setting [1]) and on β-adrenergic receptors (setting [2]) were 0.5 ± 0.02 nM and 0.4 ± 0.02 nM, respectively.

`CNCCC(Oc1ccccc1OC)c1ccccc1` (centres unmarked) [^3H-nisoxetine] gave an equilibrium dissociation constant (Kd) on NA transporter of 0.7 ± 0.05 nM. Further, the figures for the Bmax at NA transporter (setting [1]) and at NA transporter (setting [2]) were 126.8±4.9 fmol/mg protein and 131.4±7.5 fmol/mg protein, respectively.

(Values after article PMC3689833, “Neurochemical Changes in the Mouse Hippocampus Underlying the Antidepressant Effect of Genetic Deletion of P2X7 Receptors” (PLoS ONE, 2013).)
